Results as given in US20120141448A1, “Method for increasing muscle mass and strength” (priority 2010, published 2012).

How the values were obtained:
[1] = system: known non-responder to creatine supplementation; assay: Creatine non-responder MP: three-week strength training program, total body weight and total strength; assay type: in vivo, human; settings: subject two
Protocol: B. patient two, 185 cm tall, also a known non-responder to creatine supplementation, followed a three-week strength training program while testing whether supplementation with PA-enriched-lecithin improves creatine response. Total starting total body weight and strength were measured on day one, followed by the training program, consisting of concentric and eccentric isotonic lifting exercises that worked the upper and lower body muscle groups with either free weights or weight machines used once or twice weekly. Strength training was performed three times per week with at least one day of rest between sessions, which alternated between lower and upper body exercises. During the three-week period, a total of […] were performed. Each exercise included two sets of ten repetitions at 40% and 65% 1RM, followed by two sets of 3 to 5 repetitions at 90% 1RM.
The lower body exercise included seven different exercises: seated leg press, leg curls, standing calf raises, leg extension, inclined leg lift, inverted situps (back extension) and 45° inclined situps. The upper body exercise consisted of seven different exercises: bench press, latissimus pulldown, triceps pulldown, inclined dumbbell curls, seated preacher curls, seated rows, and CyBec Pec Fly. Total upper and lower body weight lifted were calculated as the average weight lifted during the last three sets multiplied by the average repetition in each set. Total strength was determined as the combined lower and upper total weight lifted. […] Strength was measured on days 1 and 22.
A four-week rest period followed the first three-week training program. The same program was repeated twice, the control was supplemented with creatine monohydrate (Creapure®, Alzchem, Germany) 5 grams per day of five grams creatine monohydrate for 21 days. During the second program, creatine monohydrate was given as for the control program with the addition of 1 gram per day PA-enriched lecithin (Chemi Nutra, White Bear Lake, Minn.) which was about 50% PA.

[2] = system: known non-responder to creatine supplementation; assay: Creatine non-responder RJ: two-week strength training program, total body weight and total strength; assay type: in vivo, human; settings: subject one
Protocol: A. patient one, 198 cm tall, a known non-responder to creatine supplementation, followed a two-week strength training program while testing whether supplementation with PA-enriched-lecithin improves creatine response. Total starting total body weight and strength were measured on day one, followed by the training program, consisting of concentric and eccentric isotonic lifting exercises that worked the upper and lower body muscle groups. Either free weights or weight machines were used once or twice weekly. Strength training was performed three times per week with at least one day of rest between sessions, which alternated between lower and upper body exercises. During the two-week period, a total of six training sessions (three upper and three lower) were performed. Each exercise included two sets of ten repetitions at 30% and 60% 1RM, followed by two sets of 3 to 5 repetitions at 90% 1RM.
The lower body exercise included seven different exercises: seated leg press, leg curls, standing calf raises, leg extensions, inclined leg lift, inverted situps (back extension) and 45° inclined situps. The upper body exercise consisted of seven different exercises: bench press, latissimus pulldown, triceps pulldown, inclined dumbbell curls, seated preacher curls, seated rows, and CyBec Pec Fly.
Total upper and lower body weight lifted were calculated as the average weight lifted during the last three sets multiplied by the average repetition in each set. Total strength was determined as the combined lower and upper total weight lifted. Total body weight was determined after day 8 and day 15. Strength was measured on days 1 and 15.
A four-week rest period followed the first two-week training program. The same program was repeated twice, the control was supplementation of creatine monohydrate (Creapure, Alzchem, Germany) 4 times 5 grams per day for five days of loading, followed by nine days of five grams creatine monohydrate. During the second program, creatine monohydrate was given as for the control program with the addition of PA-enriched lecithin (Chemi Nutra, White Bear Lake, Minn.) which was about 50% PA.

CN(CC(=O)O)C(=N)N.O [Creatine Supplement, creatine monohydrate]
weight, day 1 ([1]; day 1 of three-week program): 81.9 kg | total strength increase ([1]; day 1 vs day 22): 5% | weight, day 10 ([1]; day 10 of three-week program): 81.5 kg | weight, day 22 ([1]; day 22 of three-week program): 81.2 kg | effect on body weight ([1]; three-week program): not effective in preventing a slight weight loss | weight, day 1 ([2]; day 1 of two-week program): 88.8 kg | total strength increase ([2]; day 1 vs day 15): 5% | weight, day 8 ([2]; day 8 of two-week program): 88.3 kg | weight, day 15 ([2]; day 15 of two-week program): 88.0 kg | effect on body weight ([2]; two-week program): not effective in preventing a slight weight loss
